Laboratory results from ChEMBL document CHEMBL4422622, “Identification of Mineralocorticoid Receptor Modulators with Low Impact on Electrolyte Homeostasis but Maintained Organ Protection” (J Med Chem, 2019).

Tests used:
[1] = molecular target: T1, Mineralocorticoid receptor (Homo sapiens, UniProt P08235)
T1 sequence (P08235 whole entry): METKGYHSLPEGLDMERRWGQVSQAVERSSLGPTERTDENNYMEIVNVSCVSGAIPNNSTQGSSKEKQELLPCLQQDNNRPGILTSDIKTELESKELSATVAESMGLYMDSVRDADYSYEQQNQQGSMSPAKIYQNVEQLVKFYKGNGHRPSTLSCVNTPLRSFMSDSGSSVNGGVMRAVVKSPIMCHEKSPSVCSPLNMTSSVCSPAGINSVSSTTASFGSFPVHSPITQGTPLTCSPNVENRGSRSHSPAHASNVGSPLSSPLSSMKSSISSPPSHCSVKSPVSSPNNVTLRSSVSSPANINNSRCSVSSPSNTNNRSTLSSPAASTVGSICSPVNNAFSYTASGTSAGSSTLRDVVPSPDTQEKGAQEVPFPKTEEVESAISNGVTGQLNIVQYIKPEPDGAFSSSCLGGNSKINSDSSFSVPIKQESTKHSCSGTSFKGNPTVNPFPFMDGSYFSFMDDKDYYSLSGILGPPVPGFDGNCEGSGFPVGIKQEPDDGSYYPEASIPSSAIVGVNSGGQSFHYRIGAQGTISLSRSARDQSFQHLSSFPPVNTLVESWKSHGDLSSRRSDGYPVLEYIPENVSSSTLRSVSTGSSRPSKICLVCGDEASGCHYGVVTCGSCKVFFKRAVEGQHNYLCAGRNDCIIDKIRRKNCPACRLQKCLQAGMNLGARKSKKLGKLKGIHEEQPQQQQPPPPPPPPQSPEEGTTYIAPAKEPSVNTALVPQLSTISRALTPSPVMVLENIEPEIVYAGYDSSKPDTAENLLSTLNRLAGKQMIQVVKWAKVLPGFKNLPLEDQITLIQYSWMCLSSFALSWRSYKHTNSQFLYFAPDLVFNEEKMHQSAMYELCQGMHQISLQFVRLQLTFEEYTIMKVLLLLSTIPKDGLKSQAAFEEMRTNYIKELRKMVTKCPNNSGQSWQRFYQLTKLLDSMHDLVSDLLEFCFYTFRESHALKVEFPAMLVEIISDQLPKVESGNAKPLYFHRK
Description: Displacement of [3H]-aldosterone to human mineralocorticoid receptor LBD by radiometric binding assay

[2] = Octanol-water partitioning co-efficient, log D of the compound at pH 7.4 by LC/MS/MS analysis; assay type: physicochemical
Glucocorticoid receptor = molecular target: T2, Glucocorticoid receptor (Homo sapiens, UniProt P04150)
T2 sequence (P04150 whole entry): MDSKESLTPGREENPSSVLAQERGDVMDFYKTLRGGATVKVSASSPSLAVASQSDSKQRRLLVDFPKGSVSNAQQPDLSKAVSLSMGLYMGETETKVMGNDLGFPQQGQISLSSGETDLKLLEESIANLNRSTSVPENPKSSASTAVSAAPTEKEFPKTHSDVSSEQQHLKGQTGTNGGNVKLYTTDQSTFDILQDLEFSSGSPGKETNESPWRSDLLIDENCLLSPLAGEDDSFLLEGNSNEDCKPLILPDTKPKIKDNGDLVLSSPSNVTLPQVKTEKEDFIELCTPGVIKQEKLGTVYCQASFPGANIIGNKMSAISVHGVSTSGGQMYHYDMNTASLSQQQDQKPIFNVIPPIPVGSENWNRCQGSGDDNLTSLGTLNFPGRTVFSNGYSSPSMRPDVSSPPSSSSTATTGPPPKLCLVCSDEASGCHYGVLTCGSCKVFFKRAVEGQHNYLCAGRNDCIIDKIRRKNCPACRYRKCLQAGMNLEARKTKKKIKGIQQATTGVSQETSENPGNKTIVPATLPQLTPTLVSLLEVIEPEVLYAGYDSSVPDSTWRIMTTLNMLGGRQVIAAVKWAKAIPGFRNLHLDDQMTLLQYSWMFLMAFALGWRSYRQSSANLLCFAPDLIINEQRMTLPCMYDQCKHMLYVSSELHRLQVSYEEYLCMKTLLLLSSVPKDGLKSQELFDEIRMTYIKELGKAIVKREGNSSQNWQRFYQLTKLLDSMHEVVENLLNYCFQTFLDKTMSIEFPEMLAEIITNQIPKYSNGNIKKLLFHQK
Description: Binding affinity to recombinant human GR LBD by fluormone GS red-fluorescence polarization assay

[3] = Intrinsic clearance in human hepatocytes assessed per million cells at 1 uM measured up to 120 mins in presence of NADPH by LC-MS/MS analysis; assay type: ADME, cell-based, Hepatocyte; details: read-out: CLH
[4] = Apparent permeability in human Caco2 cells at 10 uM after 45 to 120 mins by LC/MS/MS analysis; assay type: ADME, cell-based; details: Caco-2
[5] = molecular target: T1, Mineralocorticoid receptor; remark: listed apart in the source
Description: Antagonist activity at gal4-fused human mineralocorticoid receptor LBD expressed in UAS-MR-bla HEK293 cells by luciferase reporter gene assay

SMILES | Ki [1] | logD [2] | Ki (Glucocorticoid receptor) | hepatocyte CLint at 1 µM [3] | Papp at 10 µM [4] | IC50 [5]
N=C(c1ccc2c(c1)NC(=O)CO2)[C@@H](Sc1nnc[nH]1)c1ccccc1 | 501 nM | 2.4 | – | – | – | –
CNC(=O)C[C@H]1COc2cc(C(F)(F)F)ccc2N1C(=O)c1ccc2c(c1)NC(=O)CO2 | 12.6 nM | 2.4 | 398 nM | 3 µL/min/1e6 cells | 19 ×10⁻⁶ cm/s | 79.4 nM
CNC(=O)C[C@H]1COc2cc(Br)ccc2N1C(=O)c1ccc2c(c1)NC(=O)CO2 | – | 2.2 | 126 nM | 5 µL/min/1e6 cells | 23 ×10⁻⁶ cm/s | –
O=C1COc2ccc(C(=O)N3c4cc(CC5CCCCC5)c(F)cc4OC[C@@H]3CCO)cc2N1 | 10 nM | > 4.4 | 200 nM | 26 µL/min/1e6 cells | – | 251 nM
CNC(=O)C[C@H]1COc2cc(C#N)ccc2N1C(=O)c1ccc2c(c1)NC(=O)CO2 | 1000 nM | 0.9 | > 12600 nM | < 1 µL/min/1e6 cells | 1.5 ×10⁻⁶ cm/s | 6310 nM
NS(=O)(=O)C[C@H]1COc2cc(F)ccc2N1C(=O)c1ccc2cc[nH]c2c1 | 50.1 nM | 2.3 | 631 nM | 3.6 µL/min/1e6 cells | – | 251 nM
CNC(=O)C[C@@H]1COc2cc(F)ccc2N1C(=O)c1ccc2c(c1)NC(=O)CO2 | – | 1.3 | – | < 1 µL/min/1e6 cells | 6.2 ×10⁻⁶ cm/s | –
CNC(=O)C[C@H]1COc2ccccc2N1C(=O)c1ccc2c(c1)NC(=O)CO2 | – | 1.1 | 3160 nM | < 1 µL/min/1e6 cells | 6.8 ×10⁻⁶ cm/s | –
O=c1[nH]c2ccc(/C=C3\c4ccccc4COc4cc(F)ccc43)cc2[nH]1 | – | 4 | – | – | – | –
CCNC(=O)CC1COc2cc(F)ccc2N1C(=O)c1ccc2c(c1)NC(=O)CO2 (racemic) | > 10000 nM | 1.6 | > 15800 nM | 3 µL/min/1e6 cells | 10 ×10⁻⁶ cm/s | > 10000 nM
CNC(=O)C[C@H]1COc2cc(F)c(CC(C)C)cc2N1C(=O)c1ccc2c(c1)NC(=O)CO2 | 0.631 nM | 3.1 | 7.94 nM | 13 µL/min/1e6 cells | – | 20 nM
CNC(=O)C[C@H]1CCc2cc(F)ccc2N1C(=O)c1ccc2c(c1)NC(=O)CO2 | 316 nM | 1.4 | 6310 nM | < 1.8 µL/min/1e6 cells | 6.3 ×10⁻⁶ cm/s | 2000 nM
CNC(=O)C[C@H]1COc2cc(F)c(OC(C)C)cc2N1C(=O)c1ccc2c(c1)NC(=O)CO2 | 10 nM | 1.8 | 79.4 nM | < 2 µL/min/1e6 cells | – | 200 nM
NC(=O)C[C@H]1COCc2cc(F)ccc2N1C(=O)c1ccc2c(c1)NC(=O)CO2 | > 10000 nM | 0.4 | > 15800 nM | < 1 µL/min/1e6 cells | < 0.6 ×10⁻⁶ cm/s | > 10000 nM
NC(=O)C[C@H]1CNc2cc(Cl)ccc2N1C(=O)c1ccc2c(c1)NC(=O)CO2 | 7.94 nM | 1.5 | 316 nM | < 1 µL/min/1e6 cells | < 0.81 ×10⁻⁶ cm/s | 126 nM
CNC(=O)C[C@H]1COc2cc(Cl)cc(C)c2N1C(=O)c1ccc2c(c1)NC(=O)CO2 | 398 nM | 1.2 | > 12600 nM | 2.5 µL/min/1e6 cells | 7.8 ×10⁻⁶ cm/s | 2000 nM
Cc1ccc2c(c1)OC[C@](C)(CS(C)(=O)=O)N2C(=O)c1ccc2c(c1)NC(=O)CO2 | 15.8 nM | 1.8 | 1000 nM | 60 µL/min/1e6 cells | 38 ×10⁻⁶ cm/s | 63.1 nM
NC(=O)C[C@H]1COc2cc(F)c(C3CC3)cc2N1C(=O)c1ccc2c(c1)NC(=O)CO2 | 3.16 nM | 2 | 2.51 nM | < 2 µL/min/1e6 cells | – | 79.4 nM
CNC(=O)C[C@H]1COc2cc(F)c(CC(C)C)cc2N1C(=O)c1ccnc(NC(N)=O)c1 | 7.94 nM | 2.2 | 126 nM | 6.1 µL/min/1e6 cells | – | 100 nM
C[C@@H]1CN(c2ccc3c(n2)NC(=O)CO3)[C@H](c2ccccc2)CO1 | – | 2.7 | – | – | – | –
NC(=O)C[C@H]1COc2cc(Cl)ccc2N1C(=O)c1ccc2c(c1)NC(=O)CO2 | – | 1.7 | 31.6 nM | 1.5 µL/min/1e6 cells | 5.6 ×10⁻⁶ cm/s | –
NS(=O)(=O)C[C@H]1COc2cc(F)ccc2N1C(=O)c1ccc2c(c1)NCCO2 | 39.8 nM | 1.3 | 1260 nM | < 1 µL/min/1e6 cells | – | 200 nM
NC(=O)C[C@H]1COc2cc(F)ccc2N1C(=O)c1ccc2c(c1)NC(=O)CO2 | – | 1.1 | 631 nM | < 1 µL/min/1e6 cells | 3 ×10⁻⁶ cm/s | –
CC(C)Cc1cc2c(cc1Cl)OC[C@H](CC(N)=O)N2C(=O)c1ccc2c(c1)NC(=O)CO2 | 0.501 nM | 3.3 | 1.26 nM | 11 µL/min/1e6 cells | – | 2.51 nM
CC(C)Cc1cc2c(cc1F)OC[C@H](CS(N)(=O)=O)N2C(=O)c1ccc2c(c1)NC(=O)CO2 | < 0.316 nM | 2.8 | 1.58 nM | 18 µL/min/1e6 cells | – | 0.794 nM
CNC(=O)C[C@H]1COc2cc(F)ccc2N1C(=O)c1ccc2c(c1)NC(=O)OC2 | > 6310 nM | 0.9 | > 15800 nM | < 1 µL/min/1e6 cells | – | > 10000 nM
